Laboratory results from ChEMBL document CHEMBL4411307, “N,N'-diaryl-bishydrazones in a biphenyl platform: Broad spectrum antifungal agents” (Eur J Med Chem, 2019).
Converted amounts (≈) assume the structure as drawn. The source made the active and inactive calls. The calls are words filed in the database; no cut-off is given here.

Key:
[1] = Hemolytic activity in mouse RBC at 3.9 ug/ml after 1 hr relative to control; format: ADME, cell-based, Erythrocyte; settings: red blood cells (erythrocytes), read-out: Activity
[2] = Selectivity index, ratio of compound concentration showing <20 to <30% hemolysis in mouse RBC to MIC for fluconazole/ITC-susceptible Candida albicans ATCC MYA-2876; format: toxicity; settings: red blood cells (erythrocytes), read-out: Selectivity Index
Candida albicans [3] = experiment: Antifungal activity against fluconazole/ITC-susceptible Candida albicans ATCC MYA-2876 measured after 48 hrs by CLSI M27-A3 protocol based method; format: functional; settings: ATCC MYA-2876, 48 h
[4] = Selectivity index, ratio of CC50 for human A549 cells to MIC for fluconazole/ITC-resistant Candida albicans ATCC MYA-1003; format: toxicity; settings: read-out: Selectivity Index
[5] = Selectivity index, ratio of compound concentration showing <20 to <30% hemolysis in mouse RBC to MIC for Candida glabrata ATCC 2001; format: toxicity; settings: mouse red blood cells (RBC), read-out: Selectivity Index
[6] = Selectivity index, ratio of CC50 for human A549 cells to MIC for Aspergillus nidulans ATCC 38163; format: toxicity; settings: read-out: Selectivity Index
[7] = Hemolytic activity in mouse RBC at 62.5 ug/ml after 1 hr relative to control; format: ADME, cell-based, Erythrocyte; settings: red blood cells (erythrocytes), read-out: Activity
Aspergillus flavus = experiment: Antifungal activity against Aspergillus flavus ATCC MYA-3631 measured after 48 hrs by CLSI M38-A2 protocol based method; format: functional; settings: ATCC MYA-3631, 48 h
[8] = Selectivity index, ratio of CC50 for human A549 cells to MIC for fluconazole/ITC-susceptible Candida albicans ATCC MYA-2310; format: toxicity; settings: read-out: Selectivity Index
Candida albicans [9] = experiment: Antifungal activity against fluconazole/ITC-susceptible Candida albicans ATCC MYA-2310 measured after 48 hrs by CLSI M27-A3 protocol based method; format: functional; settings: ATCC MYA-2310, 48 h
Enterococcus = experiment: Antibacterial activity against vancomycin-resistant Enterococcus; format: functional, organism-based
Candida albicans [10] = experiment: Antifungal activity against fluconazole/ITC-resistant Candida albicans ATCC 64124 measured after 48 hrs by CLSI M27-A3 protocol based method; format: functional; settings: ATCC 64124, 48 h
[11] = Hemolytic activity in mouse RBC at 1.95 ug/ml after 1 hr relative to control; format: ADME, cell-based, Erythrocyte; settings: red blood cells (erythrocytes), read-out: Activity
[12] = Hemolytic activity in mouse RBC at […] ug/ml after 1 hr relative to control; format: ADME, cell-based, Erythrocyte; settings: red blood cells (erythrocytes), read-out: Activity
Staphylococcus aureus = experiment: Antibacterial activity against methicillin-resistant Staphylococcus aureus; format: functional, organism-based
[13] = Selectivity index, ratio of compound concentration showing <20 to <30% hemolysis in mouse RBC to MIC for Aspergillus terreus ATCC MYA-3633; format: toxicity; settings: mouse red blood cells (RBC), read-out: Selectivity Index
[14] = Hemolytic activity in mouse RBC at 7.8 ug/ml after 1 hr relative to control; format: ADME, cell-based, Erythrocyte; settings: red blood cells (erythrocytes), read-out: Activity
[15] = Selectivity index, ratio of CC50 for human A549 cells to MIC for fluconazole/ITC-resistant Candida albicans ATCC 10231; format: toxicity; settings: read-out: Selectivity Index
Nakaseomyces glabratus = experiment: Antifungal activity against Candida glabrata ATCC 2001 measured after 48 hrs by CLSI M27-A3 protocol based method; format: functional; settings: CBS 138, 48 h
[16] = Hemolytic activity in mouse RBC at […] after 1 hr relative to control; format: ADME, cell-based, Erythrocyte; settings: red blood cells (erythrocytes), read-out: Activity; further: tested at 0.48 µg/mL
[17] = Selectivity index, ratio of compound concentration showing <20 to <30% hemolysis in mouse RBC to MIC for Aspergillus flavus ATCC MYA-3631; format: toxicity; settings: mouse red blood cells (RBC), read-out: Selectivity Index
[18] = Selectivity index, ratio of CC50 for human A549 cells to MIC for fluconazole/ITC-resistant Candida albicans ATCC 64124; format: toxicity; settings: read-out: Selectivity Index
[19] = Selectivity index, ratio of CC50 for human A549 cells to MIC for fluconazole/ITC-resistant Candida albicans ATCC 90819; format: toxicity; settings: read-out: Selectivity Index
Aspergillus terreus = experiment: Antifungal activity against Aspergillus terreus ATCC MYA-3633 measured after 48 hrs by CLSI M38-A2 protocol based method; format: functional; settings: ATCC MYA-3633, 48 h
[20] = Selectivity index, ratio of CC50 for human A549 cells to MIC for fluconazole/ITC-susceptible Candida albicans ATCC MYA-2876; format: toxicity; settings: read-out: Selectivity Index
Candida albicans [21] = experiment: Antifungal activity against fluconazole/ITC-resistant Candida albicans ATCC 90819 measured after 48 hrs by CLSI M27-A3 protocol based method; format: functional; settings: ATCC 90819, 48 h
BEAS-2B = experiment: Cytotoxicity against human BEAS2B cells after 24 hrs by resazurin based assay; format: cell-based
Candida albicans [22] = experiment: Antifungal activity against fluconazole/ITC-resistant Candida albicans ATCC 10231 measured after 48 hrs by CLSI M27-A3 protocol based method; format: functional; settings: ATCC 10231, 48 h
Listeria monocytogenes = experiment: Antibacterial activity against Listeria monocytogenes; format: functional, organism-based
[23] = Selectivity index, ratio of compound concentration showing <20 to <30% hemolysis in mouse RBC to MIC for fluconazole/ITC-resistant Candida albicans ATCC MYA-1003; format: toxicity; settings: mouse red blood cells (RBC), read-out: Selectivity Index
[24] = Selectivity index, ratio of compound concentration showing <20 to <30% hemolysis in mouse RBC to MIC for fluconazole/ITC-resistant Candida albicans ATCC 64124; format: toxicity; settings: red blood cells (erythrocytes), read-out: Selectivity Index
Candida albicans [25] = experiment: Antifungal activity against fluconazole/ITC-resistant Candida albicans ATCC MYA-1237 measured after 48 hrs by CLSI M27-A3 protocol based method; format: functional; settings: ATCC MYA-1237, 48 h
Candida parapsilosis = experiment: Antifungal activity against Candida parapsilosis ATCC 22019 measured after 48 hrs by CLSI M27-A3 protocol based method; format: functional; settings: Lodderomyces parapsilosis, ATCC 22019, 48 h
[26] = Selectivity index, ratio of CC50 for human A549 cells to MIC for Candida parapsilosis ATCC 22019; format: toxicity; settings: read-out: Selectivity Index
Candida albicans [27] = experiment: Antifungal activity against fluconazole/ITC-resistant Candida albicans ATCC MYA-1003 measured after 48 hrs by CLSI M27-A3 protocol based method; format: functional; settings: ATCC MYA-1003, 48 h
[28] = Selectivity index, ratio of compound concentration showing <20 to <30% hemolysis in mouse RBC to MIC for fluconazole/ITC-resistant Candida albicans ATCC MYA-1237; format: toxicity; settings: mouse red blood cells (RBC), read-out: Selectivity Index
Pichia kudriavzevii = experiment: Antifungal activity against Candida krusei ATCC 6258 measured after 48 hrs by CLSI M27-A3 protocol based method; format: functional; settings: ATCC 6258, 48 h
[29] = Selectivity index, ratio of compound concentration showing <20 to <30% hemolysis in mouse RBC to MIC for fluconazole/ITC-resistant Candida albicans ATCC 90819; format: toxicity; settings: red blood cells (erythrocytes), read-out: Selectivity Index
[30] = Selectivity index, ratio of CC50 for human A549 cells to MIC for Aspergillus terreus ATCC MYA-3633; format: toxicity; settings: read-out: Selectivity Index
[31] = Selectivity index, ratio of compound concentration showing <20 to <30% hemolysis in mouse RBC to MIC for fluconazole/ITC-resistant Candida albicans ATCC 10231; format: toxicity; settings: red blood cells (erythrocytes), read-out: Selectivity Index
Aspergillus nidulans = experiment: Antifungal activity against Aspergillus nidulans ATCC 38163 measured after 48 hrs by CLSI M38-A2 protocol based method; format: functional; settings: ATCC 38163, 48 h
[32] = Selectivity index, ratio of compound concentration showing <20 to <30% hemolysis in mouse RBC to MIC for Candida parapsilosis ATCC 22019; format: toxicity; settings: mouse red blood cells (RBC), read-out: Selectivity Index
[33] = Selectivity index, ratio of CC50 for human A549 cells to MIC for Candida glabrata ATCC 2001; format: toxicity; settings: read-out: Selectivity Index
A549 = experiment: Cytotoxicity against human A549 cells after 24 hrs by resazurin based assay; format: cell-based; settings: a549, 24 h
[34] = Selectivity index, ratio of compound concentration showing <20 to <30% hemolysis in mouse RBC to MIC for Aspergillus nidulans ATCC 38163; format: toxicity; settings: mouse red blood cells (RBC), read-out: Selectivity Index
[35] = Selectivity index, ratio of CC50 for human A549 cells to MIC for Candida krusei ATCC 6258; format: toxicity; settings: read-out: Selectivity Index
[36] = Selectivity index, ratio of CC50 for human A549 cells to MIC for fluconazole/ITC-resistant Candida albicans ATCC MYA-1237; format: toxicity; settings: read-out: Selectivity Index
[37] = Hemolytic activity in mouse RBC at 31.3 ug/ml after 1 hr relative to control; format: ADME, cell-based, Erythrocyte; settings: red blood cells (erythrocytes), read-out: Activity
[38] = Selectivity index, ratio of compound concentration showing <20 to <30% hemolysis in mouse RBC to MIC for fluconazole/ITC-susceptible Candida albicans ATCC MYA-2310; format: toxicity; settings: mouse red blood cells (RBC), read-out: Selectivity Index
[39] = Selectivity index, ratio of compound concentration showing <20 to <30% hemolysis in mouse RBC to MIC for Candida krusei ATCC 6258; format: toxicity; settings: mouse red blood cells (RBC), read-out: Selectivity Index

For `Fc1cccc(N/N=C/c2ccc(-c3ccc(/C=N/Nc4cccc(F)c4)cc3)cc2)c1`, the hemolysis at 1 h, 3.9 ug/ml [1] was 3.2%, the selectivity ratio [2] was 1 to 32 and the MIC (Candida albicans [3]) was over 31.3 µg/mL. The selectivity ratio [4] was 1, the selectivity ratio [5] was 1 to 32 and the selectivity ratio [6] was 1. For the same molecule, the hemolysis at 1 h, 62.5 ug/ml [7] was 13.6%, the MIC (Aspergillus flavus) was 31.3 µg/mL (≈ 73.4 µM) and the selectivity ratio [8] was 1. The MIC (Candida albicans [9]) was over 31.3 µg/mL, the Activity (Enterococcus) was “inactive” and the MIC (Candida albicans [10]) was over 31.3 µg/mL. For the same molecule, the hemolysis at 1 h, 1.95 ug/ml [11] was 0%, the hemolysis at 1 h, 15.6 ug/ml ([12]; at 15.6 µg/mL) was 7.7% and the hemolysis at 1 h, 0.975 ug/ml [12] was 0.8%. The Activity (Staphylococcus aureus) was “inactive”, the selectivity ratio [13] was 1 to 32 and the hemolysis at 1 h, 7.8 ug/ml [14] was 2.6%. The selectivity ratio [15] was 4, the MIC (Nakaseomyces glabratus) was over 31.3 µg/mL and the hemolysis at 1 h, […] [16] was 0.2%. For the same molecule, the selectivity ratio [17] was 1 to 32, the selectivity ratio [18] was 1 and the selectivity ratio [19] was 1. The MIC (Aspergillus terreus) was over 31.3 µg/mL, the selectivity ratio [20] was 1 and the MIC (Candida albicans [21]) was over 31.3 µg/mL. For the same molecule, the CC50 (BEAS-2B) was 16 µg/mL (≈ 37.5 µM), the MIC (Candida albicans [22]) was 7.8 µg/mL (≈ 18.3 µM) and the Activity (Listeria monocytogenes) was “inactive”. For the same molecule, the selectivity ratio [23] was 1 to 32, the selectivity ratio [24] was 1 to 32 and the MIC (Candida albicans [25]) was over 31.3 µg/mL. It also gave an MIC (Candida parapsilosis) of 3.9 µg/mL (≈ 9.14 µM), a selectivity ratio [26] of 8 and an MIC (Candida albicans [27]) of over 31.3 µg/mL. The selectivity ratio [28] was 1 to 32, the MIC (Pichia kudriavzevii) was 15.6 µg/mL (≈ 36.6 µM) and the selectivity ratio [29] was 1 to 32. It also gave a selectivity ratio [30] of 1, a selectivity ratio [31] of 1 to 32 and an MIC (Aspergillus nidulans) of over 31.3 µg/mL. For the same molecule, the selectivity ratio [32] was 1 to 32, the selectivity ratio [33] was 1 and the CC50 (A549) was over 31 µg/mL. The selectivity ratio [34] was 1 to 32, the selectivity ratio [35] was 2 and the selectivity ratio [36] was 1. For the same molecule, the hemolysis at 1 h, 31.3 ug/ml [37] was 10.3%, the selectivity ratio [38] was 1 to 32 and the selectivity ratio [39] was 1 to 32.
